Reference: US20230381321A1, “CAMPTOTHECIN CONJUGATES” (priority 2022, published 2023)
Read-outs that look alike come from different tables or passages of the source.

Key:
Format in all cases: cell-based
[1] = test system: renal carcinoma cells (786-O); assay: In vitro potency (CellTiter-Glo, 96 h) on 786-O; conditions: Homo sapiens, 786-0, 96 h, read-out: 786-O IC50
Description: (§1) In vitro potency was assessed on multiple cancer cell lines. All cell lines were authenticated by STR profiling at IDEXX Bioresearch and cultured for no more than 2 months after resuscitation. Cells cultured in log-phase growth were seeded for 24 hours in 96-well plates containing […] RPMI 1640 supplemented with 20% FBS. Serial dilutions of antibody-drug conjugates in cell culture media were prepared at 4x working concentrations, and 50 μL of each dilution was added to the 96-well plates. Following addition of test articles, cells were incubated with test articles for 4 days at […]. After 96 hours, growth inhibition was assessed by CellTiterGlo® (Promega, Madison, WI) and luminescence was measured on a plate reader.
(§2) Cell viability was determined by CellTiter-Glo staining after 96h exposure to ADC. ND=Not Determined. In the following tables, “Ex_” refers to a drug linker number. For example, “Ag4-Ex_4a” refers to a conjugate of an Ag4 antibody with drug linker 4a.

melanoma cells (A2058) = assay: In vitro potency (CellTiter-Glo, 96 h) on A2058; conditions: Homo sapiens, A2058, 96 h, read-out: A2058 IC50
Description: as §1, §2

[2] = test system: pancreatic cancer cells (BxPC3); assay: In vitro potency (CellTiter-Glo, 96 h) on BxPC3; conditions: Homo sapiens, BXPC-3, 96 h, read-out: BxPC3 IC50
Description: as §1, §2

[3] = test system: non-small-cell lung cancer cells (Calu1); assay: In vitro potency (CellTiter-Glo, 96 h) on Calu1; conditions: Homo sapiens, Calu-1, 96 h, read-out: Calu1 IC50
Description: as §1, §2

[4] = test system: anaplastic large cell lymphoma cells (DEL); assay: In vitro potency (CellTiter-Glo, 96 h) on DEL; conditions: 96 h, read-out: DEL IC50
Description: as §1, §2

[5] = test system: anaplastic large cell lymphoma cells (DELBVR); assay: In vitro potency (CellTiter-Glo, 96 h) on DELBVR; conditions: 96 h, read-out: DELBVR IC50
Description: as §1, §2

[6] = test system: anaplastic large cell lymphoma cells (Karpas299); assay: In vitro potency (CellTiter-Glo, 96 h) on Karpas299; conditions: Homo sapiens, KARPAS-299, 96 h, read-out: Karpas299 IC50
Description: as §1, §2

[7] = test system: Hodgkin's lymphoma cells (L540cy); assay: In vitro potency (CellTiter-Glo, 96 h) on L540cy; conditions: L540cy, 96 h, read-out: L540cy IC50
Description: as §1, §2

[8] = In vitro potency (CellTiter-Glo, 96 h) on Ls174T; conditions: Homo sapiens, LS174T, read-out: Ls174T IC50
Description: as §1, §2

[9] = test system: breast cancer cells (MDA-MB-231); assay: In vitro potency (CellTiter-Glo, 96 h) on MDA-MB-231; conditions: read-out: MDAMB 231 IC50
Description: as §1, §2

[10] = test system: acute myeloid leukemia cells (MOLM-13); assay: In vitro potency (CellTiter-Glo, 96 h) on MOLM-13; conditions: read-out: MOLM-13 IC50
Description: as §1, §2

[11] = test system: B-lymphocyte cancer cells (SU-DHL4); assay: In vitro potency (CellTiter-Glo, 96 h) on SU-DHL4; conditions: Homo sapiens, SU-DHL-4, 96 h, read-out: SU-DHL-4 IC50
Description: as §1, §2

[12] = CPT free drugs, CellTiter-Glo after 96 h exposure
[13] = Homo sapiens, MDA-MB-231, 96 h, CPT free drugs, CellTiter-Glo after 96 h exposure
[14] = Homo sapiens, MOLM-13, 96 h, CPT free drugs, CellTiter-Glo after 96 h exposure

| SMILES | IC50 [1, 12] | IC50 (melanoma cells (A2058); [12]) | IC50 [2, 12] | IC50 [3, 12] | IC50 [4, 12] | IC50 [5, 12] | IC50 [6, 12] | IC50 [7, 12] | IC50 [8, 12] | IC50 [9, 13] | IC50 [10, 14] | IC50 [11, 12] | other results |
| --- | --- | --- | --- | --- | --- | --- | --- | --- | --- | --- | --- | --- | --- |
| CC[C@@]1(O)C(=O)OCc2c1cc1n(c2=O)Cc2c-1nc1cc(F)c(C)c(-c3ccsc3)c1c2CN [Compound 6g] | 6 nM | 4 nM | 7 nM | 25 nM | 1 nM | 1 nM | 4 nM | 4 nM | 14 nM | 12 nM | 6 nM | 2 nM |  |
| CC[C@@]1(O)C(=O)OCc2c1cc1n(c2=O)Cc2c-1nc1cc3c(cc1c2Cn1cnc(CO)c1)OCO3 [Compound 7aj] |  |  |  |  |  |  |  |  |  |  |  |  | IC50 [1]: 99 nM; IC50 (melanoma cells (A2058)): 57 nM; IC50 [2]: 103 nM; IC50 [3]: > 1000 nM; IC50 [4]: 14 nM; IC50 [5]: 16 nM; IC50 [6]: 55 nM; IC50 [7]: 56 nM; IC50 ([8]; 96 h): 64 nM; IC50 ([9]; Homo sapiens, MDA-MB-231, 96 h): 706 nM; IC50 ([10]; Homo sapiens, MOLM-13, 96 h): 81 nM; IC50 [11]: 34 nM |
| CC[C@@]1(O)C(=O)OCc2c1cc1n(c2=O)Cc2c-1nc1ccc(SC)c(F)c1c2CN [Compound 2au] | 4 nM | 3 nM | 6 nM | 7 nM | 1 nM | 1 nM | 5 nM | 1 nM | 2 nM | 1 nM | 40 nM | 2 nM |  |
| CC[C@@]1(O)C(=O)OCc2c1cc1n(c2=O)Cc2c-1nc1cc3c(cc1c2CN)C(C)CO3 (stereo partly drawn) [Compound 11, (5S)-14-(aminomethyl)-5-ethyl-5-hydroxy-18-methyl-7,20-dioxa-11,24 diazahexacyclo[11.11.0.02,11.04,9.015,23.017,21]tetracosa-1(24),2,4(9),13,15(23),16,21-heptaene-6,10-dione] | 8 nM | 3 nM | 12 nM | 69 nM | 1 nM | 2 nM | 14 nM | 4 nM | > 1000 nM |  |  | 4 nM | IC50 [9, 12]: 41 nM; IC50 [10, 12]: 108 nM |
| C=Cc1ccc2nc3c(c(CN)c2c1)Cn1c-3cc2c(c1=O)COC(=O)[C@]2(O)CC [Compound 33, (19S)-10-(aminomethyl)-19-ethyl-19-hydroxy-7-vinyl-17-oxa-3,13-diazapentacyclo[11.8.0.02,11.04,9.015,20]henicosa-1(21),2,4,6,8,10,15(20)-heptaene-14,18-dione] | 10 nM | 6 nM | 11 nM | 36 nM | 2 nM | 2 nM | 8 nM | 4 nM | 14 nM | 18 nM | 85 nM | 4 nM |  |
| CC[C@@]1(O)C(=O)OCc2c1cc1n(c2=O)Cc2c-1nc1cc(F)c3c(c1c2CN)CCC3 [Compound 2as] | 3 nM | 3 nM | 5 nM | 4 nM | 1 nM | 1 nM | 3 nM | 1 nM | 2 nM | 1 nM | 51 nM | 2 nM |  |
